The target in one assay is T1, Agg-1 (Homo sapiens, UniProt O75173).
T1 sequence (O75173 213-837): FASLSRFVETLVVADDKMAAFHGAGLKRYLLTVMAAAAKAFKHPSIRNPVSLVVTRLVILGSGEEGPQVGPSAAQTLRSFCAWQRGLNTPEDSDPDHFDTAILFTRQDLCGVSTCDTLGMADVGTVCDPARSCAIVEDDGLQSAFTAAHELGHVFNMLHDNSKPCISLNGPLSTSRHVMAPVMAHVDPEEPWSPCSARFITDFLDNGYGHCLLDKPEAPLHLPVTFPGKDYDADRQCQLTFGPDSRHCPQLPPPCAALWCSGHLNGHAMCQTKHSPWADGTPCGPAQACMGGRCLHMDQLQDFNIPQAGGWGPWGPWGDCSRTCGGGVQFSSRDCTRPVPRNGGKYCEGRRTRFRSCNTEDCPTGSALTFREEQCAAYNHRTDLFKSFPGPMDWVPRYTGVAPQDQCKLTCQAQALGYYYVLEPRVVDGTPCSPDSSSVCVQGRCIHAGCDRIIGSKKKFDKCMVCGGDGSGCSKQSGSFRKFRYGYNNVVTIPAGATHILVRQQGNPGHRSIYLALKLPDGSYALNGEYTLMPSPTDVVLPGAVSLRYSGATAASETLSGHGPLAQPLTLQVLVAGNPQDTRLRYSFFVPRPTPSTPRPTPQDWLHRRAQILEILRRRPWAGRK
The assay is described as follows: Agg-1 FRET assay. Format: biochemical. To be noted: for inhibition at 22 µM: @ 22000 nM; for inhibition at 22.2 µM: @ 22200 nM. The text has this:
The Agg-1/Agg-2 FRET data for N-[(8-hydroxyquinolin-2-yl)(phenyl)methyl]-2-phenoxyacetamide and 2-{[(phenoxyacetyl)amino](phenyl)methyl}quinolin-8-yl phenoxyacetate is presented in Table 1.

The target of assay [1] is T2, recombinant human Aggrecanase-2 Agg2-Phe628 (Homo sapiens, UniProt Q9UNA0).
T2 sequence (Q9UNA0 262-628 limits assumed): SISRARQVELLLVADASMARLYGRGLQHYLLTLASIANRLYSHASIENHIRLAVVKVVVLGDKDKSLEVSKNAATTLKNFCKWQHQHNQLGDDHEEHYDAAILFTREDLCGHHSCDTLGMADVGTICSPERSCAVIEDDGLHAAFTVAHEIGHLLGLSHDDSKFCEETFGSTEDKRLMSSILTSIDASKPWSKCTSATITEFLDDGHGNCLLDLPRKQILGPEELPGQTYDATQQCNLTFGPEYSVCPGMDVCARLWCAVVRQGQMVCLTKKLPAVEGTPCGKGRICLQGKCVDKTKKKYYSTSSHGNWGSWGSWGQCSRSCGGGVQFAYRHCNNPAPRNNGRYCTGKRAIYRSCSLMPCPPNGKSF
The assay is described as follows: Aggrecanase 2 in vitro enzyme assay (Agg-2 FRET, quenched fluorescent peptide substrate). Set-up: purified recombinant human Aggrecanase-2 Agg2-Phe628 (MW=41,737); This is a truncated form of full-length human aggrecanase-2; made in house; host or cells: CHO cells. To be noted: for Agg-2 FRET Median PCT INHIB: concentration not given. Format: biochemical. The essentials:
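Continuous FRET assay with purified truncated human Aggrecanase-2 Agg2-Phe628 (CHO-expressed, 0.5 μg/ml final) and brevican-derived Abz/Dnp peptide (25 μM final) in 50 mM HEPES pH 7.5, 100 mM NaCl, 5 mM CaCl2, 0.1% CHAPS, 5% glycerol. Enzyme preincubated with compound before substrate; fluorescence (ex 340/em 420 nm) followed kinetically 40 min at 30 °C.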

Where [2] appears, read: read-out: Agg-2 FRET Median IC50.

Where “and” joins values, the source holds several entries; their conditions need not be identical. Equal values may be shown once. Read-outs that look alike come from different tables or passages of the source.

On to `O=C(COc1ccccc1)NC(c1cc(Cl)c2cccnc2c1O)c1cccc2ncccc12` (stereo not drawn) [N-[(5-chloro-8-hydroxyquinolin-7-yl)(quinolin-5-yl)methyl]-2-phenoxyacetamide], for which the inhibition at 22 µM on Agg-1 (read-out: Agg1 %) stood at 46%. The results for the IC50 in assay [1] (read-out: Agg2 IC50) and in assay [1] (setting [2]) were 3.5 µM and 3.52 µM, respectively.

Take `O=C(COc1ccccc1)NC(c1cc(Cl)c2cccnc2c1O)c1cccc2cccnc12` (stereo not drawn) [N-[(5-chloro-8-hydroxyquinolin-7-yl)(quinolin-8-yl)methyl]-2-phenoxyacetamide]: the inhibition at 22 µM on Agg-1 (read-out: Agg1 %) was 55%. Besides, in assay [1] (read-out: Agg2 IC50), the IC50 was determined as 2.2 µM.

On to `O=C(COc1ccccc1)NC(c1cc2c(cc1Cl)OCO2)c1cc(Cl)c2cccnc2c1O` (stereo not drawn) [N-[(6-chloro-1,3-benzodioxol-5-yl)(5-chloro-8-hydroxyquinolin-7-yl)methyl]-2-phenoxyacetamide], for which the IC50 at Agg-1 (read-out: Agg1 IC50) is more than 30 µM; in assay [1] (read-out: Agg2 IC50), 1.37 µM; in assay [1] (setting [2]), 1.37 µM.

As for `O=C(COc1ccccc1)NC(c1ccccc1)c1cc(N2CCCC2)c2cccnc2c1O` (stereo not drawn) [N-[(8-hydroxy-5-pyrrolidin-1-ylquinolin-7-yl)(phenyl)methyl]-2-phenoxyacetamide], at Agg-1 (read-out: Agg1 %), the inhibition at 22.2 µM is 49%. The IC50 in assay [1] (read-out: Agg2 IC50) and in assay [1] (setting [2]) was 10.5 µM each time.

`O=C(COc1ccccc1)N[C@@H](c1ccccc1Cl)c1cc(Cl)c2cccnc2c1O` [N-[(R)-(5-chloro-8-hydroxyquinolin-7-yl)(2-chlorophenyl)methyl]-2-phenoxyacetamide]: the inhibition at 22.2 µM at Agg-1 (read-out: Agg1 %) turned out to be 49%. Moreover, the half-inhibitory concentration (IC50) is 0.97 µM in assay [1] (read-out: Agg2 IC50); 0.97 µM and 1.22 µM in assay [1] (setting [2]).

For `O=C(COc1ccccc1)N[C@H](c1ccccc1Cl)c1cc(Cl)c2cccnc2c1O` [N-[(S)-(5-chloro-8-hydroxyquinolin-7-yl)(2-chlorophenyl)methyl]-2-phenoxyacetamide], the inhibition at 22.2 µM at Agg-1 (read-out: Agg1 %) worked out at 54%. Besides, the 50% inhibitory concentration (IC50) was 0.876 µM in assay [1] (read-out: Agg2 IC50); 0.876 µM and 1.34 µM in assay [1] (setting [2]).

With `COc1ccc(C(NC(=O)COc2ccccc2)c2cc(Cl)c3cccnc3c2O)cc1OCc1ccccc1` (stereo not drawn) [N-[[3-(benzyloxy)-4-methoxyphenyl](5-chloro-8-hydroxyquinolin-7-yl)methyl]-2-phenoxyacetamide], the inhibition at 7.5 µM at Agg-1 (@ 7500 nM, read-out: Agg1 %) was 54%. Besides, the IC50 in assay [1] (read-out: Agg2 IC50) is 1.04 µM.

As for `COc1ccc(C(NC(=O)Cc2ccccc2)c2cc(Cl)c3cccnc3c2O)cc1OCc1ccccc1` (stereo not drawn) [N-[[3-(benzyloxy)-4-methoxyphenyl](5-chloro-8-hydroxyquinolin-7-yl)methyl]-2-phenylacetamide], the inhibition at […] at Agg-1 (@ 1200 nM, read-out: Agg1 %) came out at 36%; in assay [1] (@ 1200 nM), 47%.

Consider `O=C(COc1ccccc1)NC(c1cccc(OCc2ccccc2)c1)c1cc(Cl)c2cccnc2c1O` (stereo not drawn) [N-[[3-(benzyloxy)phenyl](5-chloro-8-hydroxyquinolin-7-yl)methyl]-2-phenoxyacetamide], for which the inhibition at 22.2 µM at Agg-1 (read-out: Agg1 %) was found to be 47%. For the same compound, the inhibition at 3.7 µM in assay [1] (@ 3700 nM) was 48%.

As to `O=C(COc1ccccc1)NC(c1ccc(OCc2ccccc2)cc1)c1cc(Cl)c2cccnc2c1O` (stereo not drawn) [N-[[4-(benzyloxy)phenyl](5-chloro-8-hydroxyquinolin-7-yl)methyl]-2-phenoxyacetamide], the IC50 at Agg-1 (read-out: Agg1 IC50) was more than 67 µM; in assay [1] (read-out: Agg2 IC50) it was 4.4 µM.

Turning to `CN(C)c1cc(C(NC(=O)COc2ccccc2)c2ccccc2)c(O)c2ncccc12` (stereo not drawn) [N-[[5-(dimethylamino)-8-hydroxyquinolin-7-yl](phenyl)methyl]-2-phenoxyacetamide], the IC50 is approximately 25 µM on Agg-1 (read-out: Agg1 IC50) and 33.3 to 100 µM in assay [1] (read-out: Agg2 IC50). For the same compound, the “Agg-2 FRET Median PCT INHIB” value in assay [1] worked out at 58%.

Consider `O=C(COc1ccccc1)NC(c1ccccc1)c1cc(-n2cccc2)c2cccnc2c1O` (stereo not drawn) [N-[[8-hydroxy-5-(1H-pyrrol-1-yl)quinolin-7-yl](phenyl)methyl]-2-phenoxyacetamide], for which the inhibition at 200 µM at Agg-1 (@ 200000 nM, read-out: Agg1 %) was found to be 54%. Moreover, the IC50 in assay [1] (read-out: Agg2 IC50) and in assay [1] (setting [2]) was 1.64 µM each time.

As to `O=C(COc1ccccc1)NC(c1ccc(-c2ccccc2)cc1)c1cc(Cl)c2cccnc2c1O` (stereo not drawn) [N-[biphenyl-4-yl(5-chloro-8-hydroxyquinolin-7-yl)methyl]-2-phenoxyacetamide], the IC50 is more than 200 µM on Agg-1 (read-out: Agg1 IC50) and 5.4 µM in assay [1] (read-out: Agg2 IC50).

Take `O=C(NC(c1ccc2c(c1)OCO2)c1cc(Cl)c2cccnc2c1O)OCc1ccccc1` (stereo not drawn) [benzyl [1,3-benzodioxol-5-yl(5-chloro-8-hydroxyquinolin-7-yl)methyl]carbamate]: the values for the IC50 (at Agg-1 (read-out: Agg1 IC50); in assay [1] (read-out: Agg2 IC50); in assay [1] (setting [2])) were more than 3 µM, 1.56 µM and 1.56 µM, respectively.

For the compound `O=C(NC(Cc1ccccc1)c1cc(Cl)c2cccnc2c1O)OCc1ccccc1` (stereo not drawn) [benzyl [1-(5-chloro-8-hydroxyquinolin-7-yl)-2-phenylethyl]carbamate], the figures for the IC50 (at Agg-1 (read-out: Agg1 IC50); in assay [1] (read-out: Agg2 IC50)) were more than 67 µM and more than 28 µM, respectively.

Regarding `O=C(NC(c1ccccc1Cl)c1cc(Cl)c2cccnc2c1O)OCc1ccccc1` (stereo not drawn) [benzyl [(5-chloro-8-hydroxyquinolin-7-yl)(2-chlorophenyl)methyl]carbamate], the half-inhibitory concentration (IC50) is more than 67 µM on Agg-1 (read-out: Agg1 IC50) and approximately 2.5 µM in assay [1] (read-out: Agg2 IC50). Also, the “Agg-2 FRET Median PCT INHIB” value in assay [1] is given as 56%.

On to `O=C(NC(c1ccco1)c1cc(Cl)c2cccnc2c1O)OCc1ccccc1` (stereo not drawn) [benzyl [(5-chloro-8-hydroxyquinolin-7-yl)(2-furyl)methyl]carbamate], for which the IC50 (at Agg-1 (read-out: Agg1 IC50); in assay [1] (read-out: Agg2 IC50)) was more than 20 µM throughout. The “Agg-2 FRET Median PCT INHIB” value in assay [1] is 33%.

For the compound `O=C(NC(c1ccccc1)c1cc(Cl)c2cccnc2c1O)OCc1ccccc1` (stereo not drawn) [benzyl [(5-chloro-8-hydroxyquinolin-7-yl)(phenyl)methyl]carbamate], the IC50 on Agg-1 (read-out: Agg1 IC50) is more than 100 µM; in assay [1] (read-out: Agg2 IC50), more than 67 µM. The “Agg-2 FRET Median PCT INHIB” value in assay [1] is listed as 46%.

For `O=C(NC(Cc1cc(Cl)c2cccnc2c1O)c1cccc(CN2CCCC2)c1)c1ccc(-c2ccccc2)cc1` (stereo not drawn) [drawing 58], the IC50 came to 5.9 µM on Agg-1 (IC50, read-out: Agg-1 IC50 (μM) or % Inhibition) and 3.4 µM in assay [1] (IC50, read-out: Agg-2 IC50 (μM) or % Inhibition).

For `O=C(NC(Cc1cc(Cl)c2cccnc2c1O)c1cccc(CN2CCCC2)c1)c1ccc(-c2ccccc2)cc1` (stereo not drawn) [drawing 65], on Agg-1 (read-out: Agg-1 IC50 (μM) or % Inhibition), the inhibition at 200 µM turned out to be 54%. For the same compound, the inhibition at 50 µM in assay [1] (read-out: Agg-2 IC50 (μM) or % Inhibition) was determined as 50%.

A word on the IC50: it is the concentration at which inhibition is half-maximal.

Source of the values: patent publication US20080269213A1, “8-Hydroxyquinoline compounds and methods thereof” (Wyeth, priority 2006, published 2008).
